Data published in the supplement of paper PMC11208160.

test: recombinant UMI read abundance after kanamycin selection (control-corrected) (log10(CPM+1)); higher = more efficient recombination; extreme values may be limits of the assay; sequences stand for … in AGTGCAGAGAAAATCGGCCAGTTTTCTCTGCCTGCAGTCCGCATGCCGTGGGACCCCTTGGGTTCTAACCTGTTGCCTAGATTTATGCAGCGGACTGCCTTTCTCCCAAAGTGATAAACCGG…AGGTTGGTTTCACT; site = the 11-nt donor
Summary of the method: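 Sequencing read counts were converted to CPM, averaged over two replicates and scaled by control-derived factors. Results are given as log10(CPM+1). The reads covered the donor–target junction of recombinant UMIs from a pooled Escherichia coli screen of donor and donor-binding-loop pairs for the IS621 bridge recombinase.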
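Further: IS621 bridge recombinase in Escherichia coli cells against a fixed T5 target plasmid.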

Sequence	recombinant UMI read abundance (log10)
GCGACGCCATGGACCGGTTTTCCCGGTAATCCGTATTTGGG (site GCGATGCCTCC)	0.00415
GCGATAACATGGACCGGTTTTCCCGGTAATCCGTATTTGCT (site GCGAAAACTAG)	0
GCGATAACATGGACCGGTTTTCCCGGTAATCCGTATTTGCT (site GCGACAACTAG)	0.00488
GCGATAACATGGACCGGTTTTCCCGGTAATCCGTATTTGCT (site GCGAGAACTAG)	0
GCGATAACATGGACCGGTTTTCCCGGTAATCCGTATTTGCT (site GCGATAACTAG)	2.43
GCGATACCATGGACCGGTTTTCCCGGTAATCCGTATTTGAT (site GCGATACCTAT)	0
GCGATTCCATGGACCGGTTTTCCCGGTAATCCGTATTTGTA (site GCGATTCCTTA)	1.49
GCGCATGCATGGACCGGTTTTCCCGGTAATCCGTATTTGGT (site GAGCATGCTAC)	0.595
GCGCATGCATGGACCGGTTTTCCCGGTAATCCGTATTTGGT (site GCGCATGCTAC)	1.14
GCGCATGCATGGACCGGTTTTCCCGGTAATCCGTATTTGGT (site GGGCATGCTAC)	0.0133
GCGCATGCATGGACCGGTTTTCCCGGTAATCCGTATTTGGT (site GTGCATGCTAC)	0.622
GCGCCTCCATGGACCGGTTTTCCCGGTAATCCGTATTTGGG (site GCGCCTCCTCC)	0.0195
GCGCGCTCATGGACCGGTTTTCCCGGTAATCCGTATTTGAA (site GCGCGCTCTTT)	1.82
GCGCTCACATGGACCGGTTTTCCCGGTAATCCGTATTTGCC (site GCGCTCACTGG)	2.47
GCGGACACATGGACCGGTTTTCCCGGTAATCCGTATTTGCT (site GCGGACACTAG)	2.44
GCGGAGGCATGGACCGGTTTTCCCGGTAATCCGTATTTGTG (site GAGGAGGCTCA)	0.367
GCGGAGGCATGGACCGGTTTTCCCGGTAATCCGTATTTGTG (site GCGGAGGCTCA)	1.37
GCGGAGGCATGGACCGGTTTTCCCGGTAATCCGTATTTGTG (site GGGGAGGCTCA)	0.333
GCGGAGGCATGGACCGGTTTTCCCGGTAATCCGTATTTGTG (site GTGGAGGCTCA)	0.832
GCGGCATCATGGACCGGTTTTCCCGGTAATCCGTATTTGTC (site GCGGCATCTGA)	2.21
GCGGGCGCATGGACCGGTTTTCCCGGTAATCCGTATTTGAT (site GCGGGCGCTAT)	1.44
GCGGGTGCATGGACCGGTTTTCCCGGTAATCCGTATTTGCC (site GCGGGTGCTGG)	1.43
GCGGTTCCATGGACCGGTTTTCCCGGTAATCCGTATTTGTC (site GCGGTTCCTGA)	0
GCGTAGGCATGGACCGGTTTTCCCGGTAATCCGTATTTGCT (site GCGTAGGCTAG)	2.51
GCGTCAACATGGACCGGTTTTCCCGGTAATCCGTATTTGCG (site GCGTCAACTCG)	0.00614

Sequence	recombinant UMI read abundance (log10)
GCGTCGTCATGGACCGGTTTTCCCGGTAATCCGTATTTGTT (site GCGTCGTCTAA)	0.947
GCTACCTCATGGACCGGTTTTCCCGGTAATCCGTATTTGTC (site GCTACCTCTGA)	2.17
GCTACGCCATGGACCGGTTTTCCCGGTAATCCGTATTTGTA (site GCAACGCCTTA)	0.00895
GCTACGCCATGGACCGGTTTTCCCGGTAATCCGTATTTGTA (site GCCACGCCTTA)	0.0278
GCTACGCCATGGACCGGTTTTCCCGGTAATCCGTATTTGTA (site GCGACGCCTTA)	0.162
GCTACGCCATGGACCGGTTTTCCCGGTAATCCGTATTTGTA (site GCTACGCCTTA)	0.343
GCTACTCCATGGACCGGTTTTCCCGGTAATCCGTATTTGCC (site GCTACTACTGG)	0
GCTACTCCATGGACCGGTTTTCCCGGTAATCCGTATTTGCC (site GCTACTCCTGG)	0
GCTACTCCATGGACCGGTTTTCCCGGTAATCCGTATTTGCC (site GCTACTGCTGG)	0
GCTACTCCATGGACCGGTTTTCCCGGTAATCCGTATTTGCC (site GCTACTTCTGG)	0.0501
GCTACTGCATGGACCGGTTTTCCCGGTAATCCGTATTTGGC (site GCTACTGCTGA)	0.76
GCTACTGCATGGACCGGTTTTCCCGGTAATCCGTATTTGGC (site GCTACTGCTGC)	1.92
GCTACTGCATGGACCGGTTTTCCCGGTAATCCGTATTTGGC (site GCTACTGCTGG)	0
GCTACTGCATGGACCGGTTTTCCCGGTAATCCGTATTTGGC (site GCTACTGCTGT)	1.54
GCTAGAACATGGACCGGTTTTCCCGGTAATCCGTATTTGGC (site GATAGAACTGC)	0
GCTAGAACATGGACCGGTTTTCCCGGTAATCCGTATTTGGC (site GCTAGAACTGC)	2.02
GCTAGAACATGGACCGGTTTTCCCGGTAATCCGTATTTGGC (site GGTAGAACTGC)	0
GCTAGAACATGGACCGGTTTTCCCGGTAATCCGTATTTGGC (site GTTAGAACTGC)	0
GCTAGCACATGGACCGGTTTTCCCGGTAATCCGTATTTGCT (site GCTAGCACTAG)	1.64
GCTAGTGCATGGACCGGTTTTCCCGGTAATCCGTATTTGCC (site GCTAATGCTGG)	0
GCTAGTGCATGGACCGGTTTTCCCGGTAATCCGTATTTGCC (site GCTACTGCTGG)	0
GCTAGTGCATGGACCGGTTTTCCCGGTAATCCGTATTTGCC (site GCTAGTGCTGG)	1.86
GCTAGTGCATGGACCGGTTTTCCCGGTAATCCGTATTTGCC (site GCTATTGCTGG)	0
GCTATCACATGGACCGGTTTTCCCGGTAATCCGTATTTGGG (site GCTATCACTCC)	0.147
GCTATTGCATGGACCGGTTTTCCCGGTAATCCGTATTTGCC (site GCTAATGCTGG)	0

Sequence	recombinant UMI read abundance (log10)
GCTATTGCATGGACCGGTTTTCCCGGTAATCCGTATTTGCC (site GCTACTGCTGG)	0
GCTATTGCATGGACCGGTTTTCCCGGTAATCCGTATTTGCC (site GCTAGTGCTGG)	0.00747
GCTATTGCATGGACCGGTTTTCCCGGTAATCCGTATTTGCC (site GCTATTGCTGG)	0.891
GCTCACCCATGGACCGGTTTTCCCGGTAATCCGTATTTGCT (site GCTCACCCTAG)	0
GCTCATTCATGGACCGGTTTTCCCGGTAATCCGTATTTGAG (site GCTCATTCTCT)	1.39
GCTCGCGCATGGACCGGTTTTCCCGGTAATCCGTATTTGTG (site GCTCGCGCTCA)	0.397
GCTCGTCCATGGACCGGTTTTCCCGGTAATCCGTATTTGGG (site GCTCGTCCTCC)	0.0164
GCTCTATCATGGACCGGTTTTCCCGGTAATCCGTATTTGCT (site GCTCTATCTAG)	2.04
GCTGCGCCATGGACCGGTTTTCCCGGTAATCCGTATTTGGA (site GCTGCGCCTTC)	0.0238
GCTGGGACATGGACCGGTTTTCCCGGTAATCCGTATTTGTG (site GCTGGGACTCA)	0.944
GCTGGTACATGGACCGGTTTTCCCGGTAATCCGTATTTGCG (site GCTGGTACTCG)	1.68
GCTGTGTCATGGACCGGTTTTCCCGGTAATCCGTATTTGCG (site GCTGTGTCTCG)	2.07
GCTTAAGCATGGACCGGTTTTCCCGGTAATCCGTATTTGCC (site GCTTAAGCTGG)	0.666
GCTTACACATGGACCGGTTTTCCCGGTAATCCGTATTTGCG (site GCTTACACTCG)	1.72
GCTTACCCATGGACCGGTTTTCCCGGTAATCCGTATTTGAT (site GCTTACCCTAT)	0.0241
GCTTACCCATGGACCGGTTTTCCCGGTAATCCGTATTTGAT (site GCTTCCCCTAT)	0
GCTTACCCATGGACCGGTTTTCCCGGTAATCCGTATTTGAT (site GCTTGCCCTAT)	0.0186
GCTTACCCATGGACCGGTTTTCCCGGTAATCCGTATTTGAT (site GCTTTCCCTAT)	0
GCTTATCCATGGACCGGTTTTCCCGGTAATCCGTATTTGCT (site GATTATCCTAG)	0
GCTTATCCATGGACCGGTTTTCCCGGTAATCCGTATTTGCT (site GCTTATCCTAG)	1.03
GCTTATCCATGGACCGGTTTTCCCGGTAATCCGTATTTGCT (site GGTTATCCTAG)	0
GCTTATCCATGGACCGGTTTTCCCGGTAATCCGTATTTGCT (site GTTTATCCTAG)	0
GCTTCCGCATGGACCGGTTTTCCCGGTAATCCGTATTTGTT (site GCTTCCGCTAA)	1.48
GCTTCTACATGGACCGGTTTTCCCGGTAATCCGTATTTGTA (site GCTTCTACTTA)	0.541
GCTTGACCATGGACCGGTTTTCCCGGTAATCCGTATTTGAT (site GCTTGACCTAT)	0.00317
